The supplement of paper PMC10307832

These cell lines were tested with Cc1cc([C@@H](C)Nc2ccccc2C(=O)O)c2nc(N3CCOCC3)cc(=O)n2c1 [AZD6482] + CS(=O)(=O)CCNCc1ccc(-c2ccc3ncnc(Nc4ccc(OCc5cccc(F)c5)c(Cl)c4)c3c2)o1 [Lapatinib] (partner 2 µM) (assay: relative viability (nuclei count vs DMSO), 5 days (fraction); higher = more cells survive). Details: first compound 8 µM.
In short: (§1)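 Relative viability is defined as nuclei in treated wells over nuclei in vehicle wells. Duplicate plates were run and medians reported. Lung cancer cell lines in 1536-well plates were dosed by pin tool one day after seeding, with one drug or with a fixed anchor-drug dose plus five library-drug doses (not always all listed) in √10 steps, and nuclei were counted after 5 days.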

Cell Line | relative viability
LCLC-97TM1 | 0.462
NCI-H2009 | 0.815
A-427 | 1.1
NCI-H661 | 0.369
NCI-H1734 | 0.612
NCI-H460 | 0.758
NCI-H2347 | 0.763
SK-LU-1 | 0.513
NCI-H1395 | 0.562
201T | 0.993
NCI-H1915 | 1.01
HCC-827 | 0.177
LXF-289 | 0.937
NCI-H23 | 0.855

What follows are cell lines tested with COc1cc2nc(N3CCCN(C)CC3)nc(NC3CCN(Cc4ccccc4)CC3)c2cc1OC + CS(=O)(=O)N1CCN(Cc2cc3nc(-c4cccc5[nH]ncc45)nc(N4CCOCC4)c3s2)CC1 [Pictilisib] (partner 1 µM) in the same assay as above. Details: first compound 0.2 µM.
In short: as §1

Cell Line | relative viability
HCC-366 | 0.15
NCI-H1666 | 0.547
NCI-H596 | 0.396
LK-2 | 0.621
NCI-H2087 | 0.752
SK-MES-1 | 0.339
H3255 | 0.487
COR-L23 | 0.843
COR-L 105 | 0.349
IA-LM | 0.342
LOU-NH91 | 0.546
NCI-H2170 | 0.353
NCI-H2405 | 0.453
HOP-62 | 0.586
HCC-44 | 0.616
A549 | 0.551
LU99A | 0.322
BEN | 0.571

Cell Line | relative viability
HARA | 0.395
HCC-78 | 0.206
NCI-H322M | 0.489
LCLC-97TM1 | 0.186
NCI-H2009 | 0.686
A-427 | 0.755
NCI-H661 | 0.338
NCI-H1734 | 0.459
NCI-H460 | 0.306
NCI-H2347 | 0.702
SK-LU-1 | 0.702
NCI-H1395 | 0.596
201T | 0.742
NCI-H1915 | 0.94
HCC-827 | 1.04
LXF-289 | 0.8
NCI-H23 | 0.438

Same assay, conditions: first compound 0.6325 µM

Cell Line | relative viability
HCC-366 | 0.168
NCI-H1666 | 0.424
NCI-H596 | 0.432
LK-2 | 0.565
NCI-H2087 | 0.996
SK-MES-1 | 0.41
H3255 | 0.397
COR-L23 | 0.701
COR-L 105 | 0.435
IA-LM | 0.389
LOU-NH91 | 0.585
NCI-H2170 | 0.371
NCI-H2405 | 0.383
HOP-62 | 0.688
HCC-44 | 0.693
A549 | 0.569
LU99A | 0.304

Cell Line | relative viability
BEN | 0.643
HARA | 0.53
HCC-78 | 0.212
NCI-H322M | 0.604
NCI-H2009 | 0.859
A-427 | 0.728
NCI-H661 | 0.406
NCI-H1734 | 0.418
NCI-H460 | 0.513
NCI-H2347 | 0.686
SK-LU-1 | 0.604
NCI-H1395 | 0.589
201T | 0.717
NCI-H1915 | 0.97
HCC-827 | 1.09
LXF-289 | 0.778
NCI-H23 | 0.491

Same assay, conditions: first compound 2 µM

Cell Line | relative viability
HCC-366 | 0.098
NCI-H1666 | 0.579
NCI-H596 | 0.392
LK-2 | 0.669
NCI-H2087 | 0.872
SK-MES-1 | 0.364
H3255 | 0.529
COR-L23 | 0.931
COR-L 105 | 0.34
IA-LM | 0.419
LOU-NH91 | 0.505
NCI-H2170 | 0.288
NCI-H2405 | 0.584
HOP-62 | 0.555
HCC-44 | 0.563
A549 | 0.622
LU99A | 0.297
BEN | 0.69

Cell Line | relative viability
HARA | 0.453
HCC-78 | 0.207
NCI-H322M | 0.486
LCLC-97TM1 | 0.149
NCI-H2009 | 0.962
A-427 | 0.679
NCI-H661 | 0.428
NCI-H1734 | 0.392
NCI-H460 | 0.359
NCI-H2347 | 0.574
SK-LU-1 | 0.559
NCI-H1395 | 0.647
201T | 0.64
NCI-H1915 | 1.04
HCC-827 | 0.636
LXF-289 | 0.804
NCI-H23 | 0.574

Same assay, conditions: first compound 6.325 µM

Cell Line | relative viability
HCC-366 | 0.154
NCI-H1666 | 0.275
NCI-H596 | 0.359
LK-2 | 0.632
NCI-H2087 | 0.834
SK-MES-1 | 0.31
H3255 | 0.422
COR-L23 | 0.772
COR-L 105 | 0.327
IA-LM | 0.322
LOU-NH91 | 0.566
NCI-H2170 | 0.284
NCI-H2405 | 0.328
HOP-62 | 0.496
HCC-44 | 0.605
A549 | 0.473
LU99A | 0.278
BEN | 0.572

Cell Line | relative viability
HARA | 0.308
HCC-78 | 0.188
NCI-H322M | 0.548
LCLC-97TM1 | 0.139
NCI-H2009 | 0.673
A-427 | 0.675
NCI-H661 | 0.466
NCI-H1734 | 0.384
NCI-H460 | 0.332
NCI-H2347 | 0.549
SK-LU-1 | 0.401
NCI-H1395 | 0.486
201T | 0.683
NCI-H1915 | 0.865
HCC-827 | 0.886
LXF-289 | 0.762
NCI-H23 | 0.362

What follows are cell lines tested with COc1cc2nc(N3CCCN(C)CC3)nc(NC3CCN(Cc4ccccc4)CC3)c2cc1OC (assay: relative viability (nuclei count vs DMSO), 5 days (fraction); higher = more cells survive). Details: 0.2 µM.
In short: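 Acceptance criteria were a control CV below 25% and at least one doubling per plate. Lung cancer cell lines in 1536-well plates got five library-drug doses (not always all listed) √10 apart by pinning and were left 5 days with no medium change. Viability divides treated-well nuclei by vehicle-well nuclei and is the median across plates. Nuclei were counted by MetaXpress from 4× Hoechst images.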

Cell Line | relative viability
HCC-366 | 1.01
NCI-H1666 | 0.948
